Laboratory results from BindingDB's records for doi:10.1074/jbc.M803947200 (Universit&Eacute, 2008).

molecular target: Stromal cell-derived factor 1 (Homo sapiens, UniProt P48061); test: Tryptophan Fluorescence Assay; conditions: 20 °C
Text: Binding of chalcone 4 and chlcone 1 to CSCL12 was examined by monitoring changes in the emission intensity of intrinsic Trp fluorescence of the chemokine.

Stromal cell-derived factor 1, sequence (P48061 whole entry): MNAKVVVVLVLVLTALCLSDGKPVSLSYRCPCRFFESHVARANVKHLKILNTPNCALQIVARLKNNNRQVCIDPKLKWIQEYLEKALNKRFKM

IC50 | Structure (SMILES)
150 µM | COc1cc(/C=C/C(=O)c2ccc(Cl)cc2)ccc1O [1-(4-Chloro-phenyl)-3-(4-hydroxy-3-methoxy-phenyl)-propenone]
24.2 µM | O=C(/C=C/c1ccc(O)cc1)c1ccccc1O [(E)-1-(2-hydroxyphenyl)-3-(4-hydroxyphenyl)prop-2-en-1-one]
15 µM | O=C(/C=C/c1ccc(O)cc1)c1ccccc1 [Chalcone 2]
> 500 µM | O=C(/C=C/c1ccccc1)c1ccccc1 [Chalcone, 13]
